The structures appear in SMILES notation. Like-named read-outs stand apart in the source and are kept apart here.

For assay [1], the target named is T1, Porcine pancreas α-amylase type VI (Sus scrofa, UniProt P00690).
T1 construct: purchased Sigma-Aldrich
T1 sequence (P00690 16-511): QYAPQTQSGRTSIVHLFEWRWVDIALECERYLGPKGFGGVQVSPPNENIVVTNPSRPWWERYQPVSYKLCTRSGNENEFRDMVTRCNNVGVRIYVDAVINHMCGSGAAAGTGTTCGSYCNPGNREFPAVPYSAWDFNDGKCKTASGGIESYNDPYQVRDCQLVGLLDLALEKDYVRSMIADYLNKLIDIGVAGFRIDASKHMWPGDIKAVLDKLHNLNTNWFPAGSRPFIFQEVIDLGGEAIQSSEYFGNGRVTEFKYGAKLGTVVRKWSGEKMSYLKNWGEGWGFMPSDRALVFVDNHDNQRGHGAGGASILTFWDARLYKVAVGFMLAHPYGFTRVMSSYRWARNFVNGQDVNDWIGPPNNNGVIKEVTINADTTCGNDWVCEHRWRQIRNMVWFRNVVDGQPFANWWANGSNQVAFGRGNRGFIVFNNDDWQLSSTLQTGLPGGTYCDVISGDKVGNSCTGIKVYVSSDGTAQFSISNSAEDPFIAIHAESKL
As to the kind of experiment: biochemical. As for the experimental part: (§1) Soluble starch, sodium dihydrogenphosphate (NaH2PO4), sodium potassium tartrate and sodium chloride were purchased from Merck. Analytical grade solvents for extraction and HPLC grade solvents for chromatography were from Scharlau (Barcelona, Spain). HPLC grade water was obtained by an EASY-pure II (Barnstead, Dubuque IA, USA) water purification system. Deuterated solvents were purchased from Armar Chemicals (Döttingen, Switzerland).
α-Amylase inhibition activity was assessed by a previously reported procedure with some modifications ([17]). […] Individual blanks were prepared to correct for the blank ground absorbance, where the enzyme was replaced with buffer as follows:
Corrected absorbance of test sample = Absorbance of sample –absorbance of blank
From the net absorbance obtained, the % (w/v) of maltose generated was calculated from the equation obtained from the maltose standard calibration curve (0–0.1%, w/v, maltose).
Control incubations, representing 100% enzyme activity, were conducted in the same manner replacing the plant extract with DMSO. The percentage of α-amylase inhibition was calculated by the following equations:
% reaction=mean of maltose in sample/mean of maltose in control×100
% α-amylase inhibition activity= 100 - % reaction
(§2) Statistical analyses were done using GraphPad Prism version 5.00 for Windows. Differences were evaluated by one-way analysis of variance (ANOVA) test completed by Tukey’s multicomparison test. Statistical signiﬁcance was declared at a p<0.05. All assays were performed at least in triplicate and the results were expressed as mean ± standard deviation (SD). IC50 values were determined by plotting a percent inhibition versus concentration curve for all assays.

Assay [2] has as its target T2, α-glucosidase type I from Baker's Yeast (Saccharomyces cerevisiae, UniProt P53341).
T2 construct: purchased Sigma-Aldrich
Description: biochemical. As for the experimental part:
as §1
The α-glucosidase inhibition was measured according to an earlier reported bioassay method ([18]). […] The mixed solution was incubated in 96-well plates at 37 °C for 15 min. After preincubation, the enzymatic reaction was initiated by adding 20 µL of 5 mM p-nitrophenyl-α-D-glucopyranoside solution in 0.1 M phosphate buffer (pH 6.9), and the reaction mixture was incubated for another 15 min at 37 °C. […] The reaction system without plant extracts was used as control and the system without α-glucosidase was used as blank for correcting the background absorbance. The inhibitory rate of sample on α-glucosidase was calculated by the following formula:
% Inhibition=control absorbance-sample absorbance/control absorbance×100
as §2

The mark [3] stands for this setting: isolated compounds, pH 6.8, 37 °C, 30 min, mean ± SD, read-out: α-amylase (IC50 µM).

T2 sequence (P53341 whole entry): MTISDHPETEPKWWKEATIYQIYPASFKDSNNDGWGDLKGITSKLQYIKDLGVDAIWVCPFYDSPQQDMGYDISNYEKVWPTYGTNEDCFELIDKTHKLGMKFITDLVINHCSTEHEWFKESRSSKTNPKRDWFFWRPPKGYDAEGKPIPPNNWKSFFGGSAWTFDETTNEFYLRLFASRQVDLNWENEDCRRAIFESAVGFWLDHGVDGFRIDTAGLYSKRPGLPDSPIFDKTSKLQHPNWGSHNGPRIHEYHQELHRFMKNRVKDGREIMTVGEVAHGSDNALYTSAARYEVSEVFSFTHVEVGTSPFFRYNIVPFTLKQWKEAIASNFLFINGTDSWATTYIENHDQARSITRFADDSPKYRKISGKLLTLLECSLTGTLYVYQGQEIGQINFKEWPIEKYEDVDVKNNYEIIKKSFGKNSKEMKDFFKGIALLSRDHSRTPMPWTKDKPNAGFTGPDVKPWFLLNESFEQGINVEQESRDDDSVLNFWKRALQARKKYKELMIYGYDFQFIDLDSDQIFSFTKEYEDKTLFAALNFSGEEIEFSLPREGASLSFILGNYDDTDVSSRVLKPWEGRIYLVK

The term IC50 denotes the point on the concentration scale where inhibition reaches its midpoint. With `O=C(O)[C@H]1O[C@@H](Oc2cc(O)c3c(=O)cc(-c4ccc(O)c(O)c4)oc3c2)[C@H](O)[C@@H](O)[C@@H]1O` [Compound 2, luteolin 7-O-glucuronide], the IC50 was 61.5 ± 1.4 µM in assay [1] (setting [3]) and 14.7 ± 2.1 µM in assay [2].
For `O=c1cc(-c2ccc(O)c(O)c2)oc2cc(O[C@@H]3O[C@H](CO)[C@@H](O)[C@H](O)[C@H]3O)cc(O)c12` [Compound 1, luteolin 7-O-glucoside], in that order: 81.7 ± 2.3 µM and 18.3 ± 1.7 µM.
For `COc1ccc(-c2cc(=O)c3c(O)c(OC)c(OC)cc3o2)cc1` [Compound 4, salvigenin], the IC50 in assay [1] was greater than 100 µM; in assay [2] (isolated compounds, pH 6.9, 37 °C, mean ± SD, read-out: α-glucosidase (IC50 µM)), greater than 50 µM.
On to `COc1ccc(-c2cc(=O)c3c(O)cc(O[C@@H]4O[C@H](C(=O)O)[C@@H](O)[C@H](O)[C@H]4O)cc3o2)cc1O` [Compound 3, diosmetin 7-O-glucuronide], for which the figures for the IC50 in assay [1] (setting [3]) and in assay [2] were 76.3 ± 0.6 µM and 17.1 ± 1.9 µM, respectively.

For the origin of these results see paper PMC4403079, “Flavonoids from Salvia chloroleuca with α-Amylsae and α-Glucosidase Inhibitory Effect” (Iranian Journal of Pharmaceutical Research : IJPR, 2015).
